Experimental data published in US12102607B2, “C5aR inhibitors for use in the treatment of chemotherapy-induced iatrogenic pain” (Dompe' Farmaceutici S.P.A., priority 2017, dated 2024).

Tests used:
[1] = system: chemotherapy-induced iatrogenic pain (CIIP) in male Balb/C mice; experiment: CIIP model (paclitaxel), mechanical threshold with von Frey filaments, DF2593A; type: in vivo
Procedure: (§1) The experiments were performed in male Balb/c wild type (WT) and in C5aR deficient (C5aR^−/−) mice (6-8 weeks age). For the experiments with DF2593A, animals were housed in the animal care facility of the Ribeirao Preto Medical School, University of Sao Paulo, in plastic cages at 20° C.±1° C. with water and food ad libitum and controlled light/dark cycle. When done oral acute treatment, animals were kept without food for 2-4 hours. Animals were taken to the testing room at least 1 h before experiments and were used only once. Animal care and handling procedures were in accordance with the International Association for the Study of Pain guidelines and with the control of Animal Ethic Committee from Ribeirao Preto Medical School, protocol 120/2014.
(§2) The protocol used was performed according POLOMANO et al., 2001, adapted to mice. The animals received paclitaxel 4 mg/kg intraperitoneally (i.p.) for four alternate days (days 1, 3, 5, and 7). During treatment period, mechanical and cold allodynia were measured 4 hours after the injection of paclitaxel.
(§3) DF2593A was orally given in dose of 1 mg/kg at 8 and 14th days after first paclitaxel injection. The effect of drug was evaluated 2, 4, 6 and 24 hours after administration.
(§4) DF2593A was given orally in a dose of 1 mg/kg, 12 in 12 hours, for 7 days during the induction phase of CIIP. On days 1, 3 5 and 7, the administration of DF2593A was 1 hour before paclitaxel.
(§5) DF2593A in doses of 10, 30 or 100 μg/5 μL was injected at 8 and 14th days after the first injection of paclitaxel (CIIP).
(§6) In DF2593A experiments, mechanical hyperalgesia was tested using von Frey filaments. Mice were placed in acrylic cages (12×10×17 cm) with wire grid floors in a quiet room 15-30 minutes before the start of testing. A crescent series of filaments were applied on right paw of CIIP mice. The lower filament able to elicit flinching movements was recorded as the mechanical threshold. The animals were tested before and after treatments and the results are expressed as log of mechanical threshold.

[2] = system: chemotherapy-induced iatrogenic pain (CIIP) in male Balb/C mice; experiment: CIIP model (paclitaxel), cold response acetone test, DF2593A; type: in vivo
Procedure: as §1, §2, §3, §4, §5
In the same apparatus of von Frey test, and nearly 15 minutes after the mechanical test, was performed the acetone test. With a 1 mL syringe, one drop (50 μL) of pure acetone was released allowing the spreading of liquid for the both paw surfaces (dorsal and plantar). All movements as licking, flinching or lifting of paw were recorded with a chronometer in a total testing time of 2 minutes.

acetylated α-Tubulin = experiment: In-cell western analysis of acetylated α-Tubulin in DRG neurons; type: cell-based, Sprague Dawley rat; conditions: for Acetylated α-Tubulin (% of UT): DRG neurons
Procedure: (§7) Dorsal Root Ganglion neurons were obtained by dissociation of post natal (P2) Sprague Dawley rat ganglia (Envigo, Bresso Italy), following well-defined protocols (O'Meara et al, 2011; Owen et al, 2012). To minimize introduction of contaminating cells into the culture, any excessively long roots were trimmed from DRGs. After the isolation, DRGs were enzymatically dissociated as follows: • 20 minutes of 1.5 mg/ml papain exposure at 37° C., • 30 minutes of 4 mg/ml collagenase exposure at 37° C.
(§8) Subsequently, cells were mechanically dissociated with a fire polished glass Pasteur pipette, in order to obtain a single cell suspension.
(§9) Once dissociation was achieved, cells were seeded onto 96 black multiwell plates coated with Laminin (10 ug/mL, overnight at Room Temperature, RT) at selected densities. Following 1 week of incubation in DMEM high glucose medium supplemented with 10% FBS, 1× N2, 1× B27, 100 IU/mI penicillin, […] streptomycin, cells were treated according to experimental needs.
Dorsal Root Ganglion neurons isolated as previously reported were subjected to the following experimental challenge scheme as depicted in FIG. 10.
Paclitaxel, C5a and drugs were administered 24 hr prior the in-cell western experiment. Following 24 hr of treatment with appropriate stimuli as previously indicated, cells were washed with 1×PBS and fixed with 3,7% formaldehyde for 15 min. After the removal of fixing solution, cells were washed with 1×PBS and permeabilized with 1×PBS-0,1% Triton X-100 for 5 min at RT. Cells were then stained over night at 4° C. with the anti-acetylated α-Tubulin antibody, diluted 1:500 in Odyssey Blocking buffer, following manufacturer's protocol.
The next day, cells were washed with 1×PBS-0.1% Tween20, and stained with the secondary antibody (diluted 1:800 in Odyssey Blocking buffer, as recommended by the protocol) and with the CellTag 700Stain […]. To lower the background, Tween20 at a final concentration of 0.2% was added to the Odyssey Blocking buffer. 96-well plates were then read at Odyssey CLx Imaging system and images acquired. Data analysis was carried out by the use of Image Studio 2.1 software.
Paclitaxel was given to the DRG neurons following 7 days of culture at the concentration of 200 nM (Scuteri et al. 2006).
Effect of DF3966Y in C5α-induced neuronal toxicity In order to determine whether the observed effects may be triggered also by C5a, recombinant mouse C5a 1 μg/ml (111.11 nM) was given to the DRG neurons after 7 days of culture in presence or absence of DF3966Y 1 μM.
After 24 hr of incubation, acetylated α-Tubulin was quantified using in-cell western technique, as previously described.

DRG neurons [3] = experiment: Dendritic tree area of DRG neurons (image analysis); type: cell-based, Sprague Dawley rat; conditions: C5a alone (Table 7), relative to UT
Procedure: as §7, §8, §9
(§10) Alpha Tubulin Acetylation DRG-derived neurons were cultured for 7 days and then treated with:
(§11) • paclitaxel (200 nM, 500 nM, 1 μM and 5 μM, 20 μM) in presence or absence of DF3966Y (0.1, 1 and 10 μM) or DF2593A (0.1, 1 and 10 μM) • or C5a (500 ng/ml and 1 μg/ml) in presence or absence of DF3966Y (1 μM)
(§12) After 24 hr of treatment, cells were stained by immunofluorescence.
(§13) Cells were fixed with saccharose-paraformaldehyde then staining was performed overnight. Primary antibodies (anti—Ill Tubulin and anti-synaptotagmin 1) were diluted 1:500 in 1×PBS-4% BSA-2% Normal goat serum and 0.3% Triton x-100. The next day, cells were washed with 1×PBS-4% BSA and secondary antibodies were used diluted 1:500 in 1×PBS-4% BSA-2% Normal goat serum and 0.3% Triton x-100. After 1 hr of incubation, cells were washed with 1×PBS. Hoechst was used as a counterstain.
(§14) Sixteen images per well were taken with ArrayScan XTI HCA Reader (Thermo Fisher Scientific) with and 40× objective. All the analysis were done with HCS Studio software
Dendritic arborization directly influences synaptic genesis and input. A well-developed arborization indicates a functional synaptic network. For this reason, the area occupied by dendritic arborization has been quantified.
(§15) Data are obtained as the sum of the values obtained by the analysis of sixteen fields per well for each experiment. Percentage of the values in respect to the relative mean untreated group was calculated. Mean of the percentages from 4 separate experiments was plotted in the following Tables 2-7.

DRG neurons [4] = experiment: Electrophysiological recordings (whole-cell patch-clamp, current-clamp) of DRG-derived neurons; type: cell-based, Sprague Dawley rat; conditions: 1 μg/ml C5a alone
Procedure: as §7
Dorsal Root Gangliar (DRG)-derived neurons were cultured for 7 days and then treated in blind with the following combinations: 10 nM Paclitaxel, 10 nM Paclitaxel+1 μM DF3966Y, 1 μg/ml C5a, 1 μg/ml C5a+1 μM DF3966Y.
The compounds were administered for 1 min 30 sec (short acute stimulation) or 5 minutes (long chronic stimulation). The application of the compounds was followed by a wash-out in the physiological control solution for an equivalent time (about 10 min).
Electrophysiological recordings were performed by the patch-clamp technique in the whole-cell configuration. The standard extracellr solution was bath applied and contained the following (mM): NaCl 135, KCl 2, CaCl2 2, MgCl2 2, hepes 10, glucose 5, pH 7.4. The standard pipet solution contained the following (mM): potassium aspartate 130, NaCl 10, MgCl2 2, CaCl2 1.3, EGTA 10, Hepes 10, pH 7.3. Recordings were acquired by the pClamp8.2 software and the MultiClamp 700A amplifier (Axon Instruments), in current-clamp mode.

DRG neurons [5] = experiment: Cells number of DRG neurons (immunofluorescence, image analysis); type: cell-based
Procedure: as §7, §8, §9, §10, §11, §12, §13, §14
(§16) Cells number, synapse number and dentritic arborization were evaluated in untreated cells and in cells stimulated with paclitaxel and C5a alone or in presence of the drug. As marker of chemotherapy-induced toxicity, the total number of synapses on DRG neurons was quantitative evaluated as percentage of the number of synapse with respect to untreated (UT) control.
as §15

DRG neurons [6] = experiment: Synapse number on DRG neurons (synaptotagmin staining, image analysis); type: cell-based, Sprague Dawley rat
Procedure: as §7, §8, §9, §10, §11, §12, §13, §14
For synapse count a threshold has been set, in particular all the objects, positive to synaptotagmin staining, in the range 0.365-2.457 μm^2 have been considered as synapses.
as §16, §15

male Balb/C mice [7] = experiment: Intrathecal injection of recombinant C5a, thermal threshold (Hargreaves test); type: in vivo; conditions: higher doses, between 5 and 7 hours after injection
Procedure: as §1
(§17) Recombinant mouse C5a was given by intrathecal way, in a volume of 5 μL, and its effect follows for 1, 3, 5, 7 and 24 hours after injection.
Hargreaves test was performed as previous described (HARGREAVES et al., 1988). The animals were habituated on a glass surface with controlled temperature, which allow the homogeneous delivery of infrared light on the paw. After the activation of the light source, a chronometer was turned on. A crescent temperature reached the paw and the chronometer was turned off as soon as the animal did a withdraw movement out the light. The time recorded was considered the heat latency. […]

male Balb/C mice [8] = experiment: Intrathecal injection of recombinant C5a, mechanical threshold (von Frey hair test); type: in vivo
Procedure: as §1, §17, §6

[9] = 1 mg/kg oral, 8th and 14th day of CIIP, 2 until 6 hours after administration
[10] = 1 mg/kg p.o. 12/12 hours for 7 days during induction phase of CIIP, 1 hour before paclitaxel
[11] = 10, 30 or 100 μg/5 μL intrathecal, established CIIP (8 and 14th day)

## C[C@@H](NC(=O)CCCN1CCCCC1)c1ccc(OS(=O)(=O)C(F)(F)F)cc1 [DF2593A, N-[(1R)-1-(4-trifluoromethanesulfonyloxy)phenylethyl]-4-piperidin-1-ylbutanamide]
[1]; 10 μg/5 μL intrathecal, 8th day
  efficacy of the lowest intrathecal dose: still statistically significant
[1]; [9]
  mechanical hypersensitivity, acute oral post treatment: able to reduce the mechanical hypersensitivity
[1]; 1 mg/kg oral, established pain condition
  duration of reduction of mechanical and cold hypersensitivity after administration: at least 6 hours
[1]; [10]
  development of mechanical nociceptive response, chronic pre treatment: prevents the development
[1]; [11]
  mechanical allodynia, intrathecal treatment: improves mechanical and cold allodynia
[1]; chronic 1 mg/kg p.o., 24 hours after the last DF2593A dose
  effect on mechanical and cold response 24 hours after the last dose: no effect is observed
[2]; [9]
  cold response, acute oral post treatment: is reduce after DF2593A treatment
[2]; [10]
  development of cold nociceptive response, chronic pre treatment: prevents the development
[2]; [11]
  cold allodynia, intrathecal treatment: improves mechanical and cold allodynia
Acetylated α-Tubulin; drug 0.1 μM under Paclitaxel 200 nM, 24 hr
  Acetylated α-Tubulin (% of UT): 107.38 % of UT
Acetylated α-Tubulin; drug 0.1 μM, Paclitaxel 200 nM
  reversal of Paclitaxel-induced increase in acetylated α-Tubulin: not able to revert
Acetylated α-Tubulin; drug 1 μM under Paclitaxel 200 nM, 24 hr
  Acetylated α-Tubulin (% of UT): 100.67 % of UT
Acetylated α-Tubulin; drug 1 μM, Paclitaxel 200 nM
  reversal of Paclitaxel-induced increase in acetylated α-Tubulin: reverted the Paclitaxel-induced challenge
Acetylated α-Tubulin; drug 10 μM under Paclitaxel 200 nM, 24 hr
  Acetylated α-Tubulin (% of UT): 70.72 % of UT
Acetylated α-Tubulin; drug 10 μM, Paclitaxel 200 nM
  reduction in acetylated α-Tubulin with respect to control (UT) cells: about 25%

B1: C5a: recombinant mouse C5a, complement peptide fragment, purchased from R&D (protein, UniProt P06684 679-755, looked up)
C5a anaphylatoxin: NLHLLRQKIEEQAAKYKHSVPKKCCYDGARVNFYETCEERVARVTIGPLCIRAFNECCTIANKIRKESPHKPVQLGR
modifications: C5a anaphylatoxin
notes: recombinant mouse C5a, complement peptide fragment, purchased from R&D
DRG neurons [3]
  % dendritic tree area: 102.68 ± 9.48%
DRG neurons [4]; immediate
  increase of the firing rate, immediate: +55.61%
DRG neurons [4]; longer times of exposure
  reduction of electrical activity, longer times of exposure: about 70%
DRG neurons [5]; C5a alone (Table 3), relative to UT
  % of cell number: 98.69 ± 4.22%
DRG neurons [5]; C5a alone or in combination with DF3966Y 1 μM
  neuronal death: did not induce neuronal death
DRG neurons [6]; C5a alone
  neuronal activity damage (synapse number): did not induce neuronal activity damage
DRG neurons [6]; C5a alone (Table 5), relative to UT
  % of synapse number: 116.90 ± 17.43%
Male Balb/C mice [7]
  heat latency after intrathecal C5a: caused a decrease in heat latency
Acetylated α-Tubulin; C5a 1 μg/ml alone, 24 hr
  levels of acetylated α-Tubulin under C5a: able to increase the levels of acetylated α-Tubulin
Male Balb/C mice [8]; 100, 300 and 600 ng/5 μL intrathecal, mice, up to 24 hours after injection
  mechanical threshold after intrathecal C5a: promoted reduction of mechanical threshold in a dose-dependent manner
Male Balb/C mice [8]; intrathecal C5a, C5aR−/− mice
  C5a pro-nociceptive effect in C5aR−/− mice: abrogated
